In patent publication US20240343813A1, “COMBINATION THERAPY AND RELATED METHODS” (Bicara Therapeutics Inc., priority 2023, published 2024):

Experiments:
[1] = test system: TGFβ-induced hKRAS G12C resistant lung cancer cell line (H1792); test: CellTiter Glo cytotoxicity in TGFβ-induced hKRAS G12C inhibitor resistant cells; format: cell-based; details: long-term TGFβ treated H1792 cells compared to control H1792 cells (wild type); 72 hours
Description: Reports have shown that hKRAS G12C inhibitor efficacy is higher in cancer cells with a low epithelial-mesenchymal transition (EMT) signature compared to a high EMT signature. hTGFβ is known to induce EMT through canonical and non-canonical pathways in various cancers.
Briefly, hKRAS G12C inhibitor resistance was induced in H1792 cells by treating the cells with hTGFβ (4 ng/ml) for at least two weeks. […] Cytotoxicity was evaluated using the CellTiter Glo® Luminescent Cell Viability Assay according to manufacturer's instructions (Promega) (as described in Example 6.3).

H358 lung cancer cells = test: Long-term hKRAS G12C inhibitor treatment-induced resistance; format: cell-based; details: H358 treated with increasing concentrations of AMG510 for about one month; vs control (wild type) H358
Description: The effect of long duration treatment with a hKRAS G12C inhibitor on acquired hKRAS G12C inhibitor resistance was assessed utilizing an in vitro lung cancer model (H358). Briefly, H358 lung cancer cells were treated with increasing concentrations of the hKRAS G12C inhibitor AMG510 for about one month and cytotoxicity induced by AMG510 subsequently evaluated.

## C=CC(=O)N1CCN(c2nc(=O)n(-c3c(C)ccnc3C(C)C)c3nc(-c4c(O)cccc4F)c(F)cc23)[C@@H](C)C1 [AMG510, 6-fluoro-7-(2-fluoro-6-hydroxyphenyl)-(1M)-1-[4-methyl-2-(propan-2-yl)pyridin-3-yl]-4-[(2S)-2-methyl-4-(prop-2enoyl)piperazin-1-yl]pyrido[2,3-d]pyrimidin-2 (1H)-one]
[1]
  cytotoxicity in response to AMG510 treatment: less cytotoxicity
H358 lung cancer cells
  acquired KRAS G12C inhibitor resistance (percent viability): developed KRAS G12C inhibitor (AMG510) resistance
